Source: US8765730B2 (Hoffmann-La Roche Inc, priority 2010, dated 2014)

What follows are compounds tested against T1, human GPBAR1 receptor (Homo sapiens, UniProt Q8TDU6) (assay: functional cAMP assay in CHO-dhfr(minus) cells expressing human GPBAR1 receptors). Conditions: human EC50, functional cAMP assay, 30 min at 30° C.
T1 construct: expressed in transfected cells
T1 sequence (Q8TDU6 1-330): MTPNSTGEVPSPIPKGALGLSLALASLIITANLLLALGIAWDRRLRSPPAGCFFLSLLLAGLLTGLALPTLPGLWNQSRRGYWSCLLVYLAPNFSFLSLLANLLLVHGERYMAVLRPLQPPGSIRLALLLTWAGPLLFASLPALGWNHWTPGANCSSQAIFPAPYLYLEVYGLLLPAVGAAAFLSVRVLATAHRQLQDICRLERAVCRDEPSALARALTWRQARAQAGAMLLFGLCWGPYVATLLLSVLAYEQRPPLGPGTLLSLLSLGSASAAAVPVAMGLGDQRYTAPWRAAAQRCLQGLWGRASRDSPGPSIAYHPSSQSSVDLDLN
Assay type: cell-based
Method in brief: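 Agonist cAMP read-out: stable GPBAR1 CHO-dhfr− clone, 30 min compound exposure at 30° C following 30 min IBMX (1 mM) preincubation in Krebs Ringer bicarbonate. Time-resolved energy-transfer detection gives EC50; parental CHO cells serve as counter-screen.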
An EC50 of 12 nM was found for `Cc1cc(/C(CC(c2ccc(-c3ccc(C(=O)O)c(F)c3)cc2)c2ccc(Cl)cc2F)=N/O)ccn1` (centres unmarked) [Example 447, 4′-[1-(4-Chloro-2-fluoro-phenyl)-3-[(E)-hydroxyimino]-3-(2-methyl-pyridin-4-yl)-propyl]-3-fluoro-biphenyl-4-carboxylic acid] in this work. An EC50 of 416 nM was found for `COC(=O)c1ccc(-c2ccc(C(C/C(=N\O)c3ccnc(C)c3)c3ccc(Cl)cc3F)cc2)cc1Cl` (centres unmarked) [Example 450, 3-Chloro-4′-[1-(4-chloro-2-fluoro-phenyl)-3-[(E)-hydroxyimino]-3-(2-methyl-pyridin-4-yl)-propyl]-biphenyl-4-carboxylic acid methyl ester] in this work. An EC50 of 24 nM was found for `Cc1cc(/C(CC(c2ccc(-c3ccc(C(=O)O)c(Cl)c3)cc2)c2ccc(Cl)cc2F)=N/O)ccn1` (centres unmarked) [Example 451, 3-Chloro-4′-[1-(4-chloro-2-fluoro-phenyl)-3-[(E)-hydroxyimino]-3-(2-methyl-pyridin-4-yl)-propyl]-biphenyl-4-carboxylic acid] in this work. An EC50 of 15 nM was found for `Cc1cc(/C(C[C@H](c2ccc(-c3ccc(C(=O)O)c(Cl)c3)cc2)c2ccc(Cl)cc2F)=N/O)ccn1` [Example 452, (−)-3-Chloro-4′-[1-(4-chloro-2-fluoro-phenyl)-3-[(E)-hydroxyimino]-3-(2-methyl-pyridin-4-yl)-propyl]-biphenyl-4-carboxylic acid] in this work. An EC50 of 270 nM was found for `COC(=O)c1ccc(-c2ccc(C(C/C(=N\O)c3ccnc(C)c3)c3ccc(Cl)cc3F)cc2)cc1OC` (centres unmarked) [Example 454, 4′-[1-(4-Chloro-2-fluoro-phenyl)-3-[(E)-hydroxyimino]-3-(2-methyl-pyridin-4-yl)-propyl]-3-methoxy-biphenyl-4-carboxylic acid methyl ester] in this work. An EC50 of 12 nM was found for `COc1cc(-c2ccc(C(C/C(=N\O)c3ccnc(C)c3)c3ccc(Cl)cc3F)cc2)ccc1C(=O)O` (centres unmarked) [Example 455, 4′-[1-(4-Chloro-2-fluoro-phenyl)-3-[(E)-hydroxyimino]-3-(2-methyl-pyridin-4-yl)-propyl]-3-methoxy-biphenyl-4-carboxylic acid] in this work. An EC50 of 16 nM was found for `Cc1cc(/C(CC(c2ccc(-c3ccc(C(=O)O)cc3C)cc2)c2ccc(Cl)cc2F)=N/O)ccn1` (centres unmarked) [Example 456, 4′-[1-(4-Chloro-2-fluoro-phenyl)-3-[(E)-hydroxyimino]-3-(2-methyl-pyridin-4-yl)-propyl]-2-methyl-biphenyl-4-carboxylic acid] in this work. An EC50 of 17 nM was found for `Cc1cc(/C(CC(c2ccc(-c3ccc(C(=O)O)s3)cc2)c2ccc(Cl)cc2F)=N/O)ccn1` (centres unmarked) [Example 457, 5-{4-[1-(4-Chloro-2-fluoro-phenyl)-3-[(E)-hydroxyimino]-3-(2-methyl-pyridin-4-yl)-propyl]-phenyl}-thiophene-2-carboxylic acid] in this work. An EC50 of 22 nM was found for `Cc1cc(/C(CC(c2ccc(-c3c[nH]c(=O)[nH]c3=O)cc2)c2ccc(Cl)cc2F)=N/O)ccn1` (centres unmarked) [Example 458, 5-{4-[1-(4-Chloro-2-fluoro-phenyl)-3-[(E)-hydroxyimino]-3-(2-methyl-pyridin-4-yl)-propyl]-phenyl}-1H-pyrimidine-2,4-dione] in this work. An EC50 of 364 nM was found for `Cn1cc(/C(CC(c2ccc(-c3ccc(CC#N)cc3)cc2)c2ccc(Cl)cc2F)=N/O)ccc1=O` (centres unmarked) [Example 459, {4′-[1-(4-Chloro-2-fluoro-phenyl)-3-[(E)-hydroxyimino]-3-(1-methyl-6-oxo-1,6-dihydro-pyridin-3-yl)-propyl]-biphenyl-4-yl}-acetonitrile] in this work. An EC50 of 421 nM was found for `Cn1cc(/C(CC(c2ccc(-c3ccc(CC(=O)O)cc3)cc2)c2ccc(Cl)cc2F)=N/O)ccc1=O` (centres unmarked) [Example 460, {4′-[1-(4-Chloro-2-fluoro-phenyl)-3-[(E)-hydroxyimino]-3-(1-methyl-6-oxo-1,6-dihydro-pyridin-3-yl)-propyl]-biphenyl-4-yl}-acetic acid] in this work. An EC50 of 348 nM was found for `CCOC(=O)c1ccc(-c2ccc([C@@H](C/C(=N\O)c3ccc(=O)n(C)c3)c3ccc(Cl)cc3F)cc2)s1` [Example 467, 5-{4-[(−)-1-(4-Chloro-2-fluoro-phenyl)-3-[(E)-hydroxyimino]-3-(1-methyl-6-oxo-1,6-dihydro-pyridin-3-yl)-propyl]-phenyl}-thiophene-2-carboxylic acid ethyl ester] in this work. An EC50 of 349 nM was found for `Cn1cc(/C(C[C@H](c2ccc(-c3ccc(C(=O)O)s3)cc2)c2ccc(Cl)cc2F)=N/O)ccc1=O` [Example 468, 5-{4-[(−)-1-(4-Chloro-2-fluoro-phenyl)-3-[(E)-hydroxyimino]-3-(1-methyl-6-oxo-1,6-dihydro-pyridin-3-yl)-propyl]-phenyl}-thiophene-2-carboxylic acid] in this work. An EC50 of 61 nM was found for `Cn1cc(/C(C[C@@H](c2ccc(-c3ccc(C(=O)O)s3)cc2)c2ccc(Cl)cc2F)=N/O)ccc1=O` [Example 470, 5-{4-[(+)-1-(4-Chloro-2-fluoro-phenyl)-3-[(E)-hydroxyimino]-3-(1-methyl-6-oxo-1,6-dihydro-pyridin-3-yl)-propyl]-phenyl}-thiophene-2-carboxylic acid] in this work. An EC50 of 170 nM was found for `Cn1cc(/C(CC(c2ccc(-c3c[nH]c(=O)[nH]c3=O)cc2)c2ccc(Cl)cc2F)=N/O)ccc1=O` (centres unmarked) [Example 471, 5-{4-[1-(4-Chloro-2-fluoro-phenyl)-3-[(E)-hydroxyimino]-3-(1-methyl-6-oxo-1,6-dihydro-pyridin-3-yl)-propyl]-phenyl}-1H-pyrimidine-2,4-dione] in this work. An EC50 of 29 nM was found for `Cn1cc(/C(CC(c2ccc(-c3ccc(C(=O)O)c(F)c3)cc2)c2ccc(Cl)cc2Cl)=N/O)ccc1=O` (centres unmarked) [Example 473, 4′-[1-(2,4-Dichloro-phenyl)-3-[(E)-hydroxyimino]-3-(1-methyl-6-oxo-1,6-dihydro-pyridin-3-yl)-propyl]-3-fluoro-biphenyl-4-carboxylic acid] in this work. An EC50 of 13 nM was found for `Cn1cc(/C(CC(c2ccc(F)cc2)c2ccc(Br)cc2)=N/O)ccc1=O` (centres unmarked) [Example 479, 5-{3-(4-Bromo-phenyl)-3-(4-fluoro-phenyl)-1-[(E)-hydroxyimino]-propyl}-1-methyl-1H-pyridin-2-one] in this work. An EC50 of 20 nM was found for `Cc1cc(/C(C[C@H](c2ccc(C3CCN(S(N)(=O)=O)CC3)cc2)c2ccc(Cl)cc2C)=N/O)ccn1` [Example 480, (R,E)-4-(4-(1-(4-Chloro-2-methylphenyl)-3-(hydroxyimino)-3-(2-methylpyridin-4-yl)propyl)phenyl)piperidine-1-sulfonamide] in this work. An EC50 of 153 nM was found for `Cc1cc(/C(C[C@H](c2ccc(C3CN(C(=O)OC(C)(C)C)C3)cc2)c2ccccc2C)=N/O)ccn1` [Example 481, (R,E)-tert-Butyl 3-(4-(3-(hydroxyimino)-3-(2-methylpyridin-4-yl)-1-o-tolylpropyl)phenyl)-azetidine-1-carboxylate] in this work. An EC50 of 127 nM was found for `Cc1cc(/C(C[C@H](c2ccc(C3CNC3)cc2)c2ccccc2C)=N/O)ccn1` [Example 482, (R,E)-3-(4-(Azetidin-3-yl)phenyl)-1-(2-methylpyridin-4-yl)-3-o-tolylpropan-1-one oxime] in this work. An EC50 of 31 nM was found for `CC(=O)N1CC(c2ccc([C@@H](C/C(=N\O)c3ccnc(C)c3)c3ccccc3C)cc2)C1` [Example 483] in this work. An EC50 of 10 nM was found for `Cc1cc(/C(C[C@H](c2ccc(C3CN(S(C)(=O)=O)C3)cc2)c2ccccc2C)=N/O)ccn1` [Example 484, (R,E)-1-(2-Methylpyridin-4-yl)-3-(4-(1-(methylsulfonyl)azetidin-3-yl)phenyl)-3-o-tolylpropan-1-one oxime] in this work. An EC50 of 21 nM was found for `Cc1cc(/C(C[C@H](c2ccc(C3CN(S(N)(=O)=O)C3)cc2)c2ccccc2C)=N/O)ccn1` [Example 485, (R,E)-3-(4-(3-(Hydroxyimino)-3-(2-methylpyridin-4-yl)-1-o-tolylpropyl)phenyl)azetidine-1-sulfonamide] in this work. An EC50 of 656 nM was found for `Cc1ccccc1[C@@H](C/C(=N\O)c1ccc(=O)n(C)c1)c1ccc(C2CCC(C(=O)O)CC2)cc1` (stereo partly drawn) [Example 487, (S,E)-4-(4-(3-(hydroxyimino)-3-(1-methyl-6-oxo-1,6-dihydropyridin-3-yl)-1-o-tolylpropyl)-phenyl)cyclohexanecarboxylic acid] in this work. An EC50 of 612 nM was found for `Cc1ccccc1[C@@H](C/C(=N\O)c1ccc(=O)n(C)c1)c1ccc([C@H]2CC[C@H](C(=O)O)CC2)cc1` [Example 488, Trans-4-(4-((S,E)-3-(Hydroxyimino)-3-(1-methyl-6-oxo-1,6-dihydropyridin-3-yl)-1-o-tolylpropyl)phenyl)cyclohexanecarboxylic acid] in this work. An EC50 of 582 nM was found for `Cc1ccccc1[C@@H](C/C(=N\O)c1ccc(=O)n(C)c1)c1ccc([C@H]2CC[C@@H](C(=O)O)CC2)cc1` [Example 489, cis-4-(4-((S,E)-3-(hydroxyimino)-3-(1-methyl-6-oxo-1,6-dihydropyridin-3-yl)-1-o-tolylpropyl)phenyl)cyclohexanecarboxylic acid] in this work. An EC50 of 24 nM was found for `Cc1cc(/C(C[C@H](c2ccc(C3CCC(C(=O)O)CC3)cc2)c2ccccc2C)=N/O)ccn1` (stereo partly drawn) [Example 490, (R,E)-4-(4-(3-(Hydroxyimino)-3-(2-methylpyridin-4-yl)-1-o-tolylpropyl)phenyl)-cyclohexanecarboxylic acid] in this work. An EC50 of 18 nM was found for `Cc1cc(/C(C[C@H](c2ccc([C@H]3CC[C@@H](C(=O)O)CC3)cc2)c2ccccc2C)=N/O)ccn1` [Example 492, cis-4-{4-[(R)-3-[(E)-hydroxyimino]-3-(2-methyl-pyridin-4-yl)-1-o-tolyl-propyl]-phenyl}-cyclohexanecarboxylic acid] in this work. An EC50 of 666 nM was found for `Cc1ccccc1[C@H](C/C(=N\O)c1ccc(=O)n(C)c1)c1ccc(CC(=O)O)cc1` [Example 493, (R,E)-2-(4-(3-(Hydroxyimino)-3-(1-methyl-6-oxo-1,6-dihydropyridin-3-yl)-1-o-tolylpropyl)phenyl)acetic acid] in this work.
